Like-named read-outs stand apart in the source and are kept apart here.
What was measured:
[1] = Inhibition of arthritis in the adjuvant-induced arthritis model in the Lewis rat; type: in vivo; conditions: for ED50: Rattus norvegicus, ip, 384 h; for Potency compared with indomethacin: i.p., adjuvant arthritis model
Description: One similarity is the sensitivity to certain therapeutic treatments known to be active in humans. Also, therapeutic doses in humans are similar to therapeutic doses in the adjuvant arthritis model. Examples include NSAIDs, steroids, methotrexate, immunosuppressive drugs, such as cyclosporin, and cytotoxic drugs, such as cyclophosphamide and allopurinol. Jeurissen et. al., Arthritis and Rheumatism 34, 961-972 (1991); Yocum et. al., Annals of Internal Medicine 109, 863-869 (1988); Rau, et. al., Arthritis and Rheumatism 34, 1236-1244 (1991); Otterness and Bliven, supra; Ward, Am. J. Med. Medicine. pp. 3-9 (Jul. 13, 1984).
Lewis rats were given a 0.1 ml injection of adjuvant (1 mg/animal) into the base of the tail on day 0. Swelling of the feet and ankles was first noted on days 10-12. Maximal swelling was observed on days 16-20. The cell infiltrate of the chronic inflammatory responses is predominantly mononuclear (indicating the presence of cell-mediated immunity). Animals were observed daily, and ankle diameter was measured in millimeters on days 12 and 16 using a hand-held dial micrometer. The degree of swelling was assessed by calculating the mean difference between day 16 and day 0 ankle diameter. The results are expressed as the percent inhibition of the increase in ankle diameter on day 16. At this point the animals were sacrificed and tissues were taken for histologic evaluation.
Animals were administered test drugs, suspended in 5% polyethylene glycol and 0.5% Tween-80 in phosphate buffered saline (p.o. or i.p.) once each day from day 1 to day 16.

[2] = tested on: L-type Ca2+ channels; conditions: fibroblasts, macrophage/monocyte-like cells, Kuppfer cells; cited from earlier work
[3] = cited from earlier work
[4] = Inhibition of arthritis in the passive transfer model; type: in vivo, Lewis rat
Description: Another arthritis model often used is the passive transfer model. In the passive transfer model of adjuvant arthritis, spleen cells are harvested from animals 12-14 days after the animals have been injected with adjuvant, cultured 24 hours in vitro with the T-cell mitogen, concanavaLin A, and injected into naive rats. Within 14-20 days, arthritis develops in the paws. […] Otterness and Bliven, supra.
Nimodipine was also tested for its ability to inhibit arthritis in the passive-transfer model. Otterness and Bliven, supra.
Spleens were harvested from naive rats or from rats 9-12 days after sensitization with complete Freund's adjuvant. Single cell suspensions from spleen were prepared and cells were cultured for 24 hours with the T cell mitogen, concanavalin A. Spleen cells were harvested and injected, i.v., into naive animals. Ankle diameters were determined 14-18 days after injection of spleen cells from naive or sensitized animals into naive animals. Animals were administered nimodipine at 10 mg/kg/day, i.p., suspended in 5% polyethylene glycol and 0.5% Tween-80 in phosphate-buffered saline.

[5] = cited from earlier work; remark: listed apart in the source

Structure (SMILES): COC(=O)C1=C(C)NC(C)=C(C(=O)OCC(C)C)C1c1ccccc1[N+](=O)[O-] (stereo not shown) [nisoldipine]
- ED50 ([1]; i.p. dosage, once each day from day 1 to day 16, increase in ankle diameter on day 16, read-out: ED50): < 1 mg/kg
- Potency compared with indomethacin [1]: comparable in potency to indomethacin

Structure (SMILES): COC(=O)C1=C(C)NC(C)=C(C(=O)OC)C1c1ccccc1[N+](=O)[O-] [nifedipine]
- ED50 [1]: 11 mg/kg

Structure (SMILES): COc1ccc(CCN(C)CCCC(C#N)(c2ccc(OC)c(OC)c2)C(C)C)cc1OC (stereo not shown) [verapamil]
- ED50 [1]: 10 mg/kg

Structure (SMILES): COC(=O)C1=C(C)NC(C)=C([N+](=O)[O-])C1c1ccccc1C(F)(F)F (stereo not shown) [Bay K 8644]
- Entry of Ca2+ into non-excitable cells [2]: stimulated

Structure (SMILES): CC1=C(CC(=O)O)c2cc(F)ccc2/C1=C\c1ccc([S+](C)[O-])cc1 (stereo not shown) [sulindac]
- Potency relative to indomethacin ([3]; human, in vivo): only half as potent as indomethacin
- Toxic side effects ([3]; human, in vivo): has toxic side effects of its own

Structure (SMILES): COc1ccc2c(c1)c(CC(=O)O)c(C)n2C(=O)c1ccc(Cl)cc1 [indomethacin]
- Patients experiencing untoward side effects ([3]; human, in vivo): 35-50%
- Patients forced to discontinue use ([3]; human, in vivo): about 20%
- Ulceration of the upper gastrointestinal tract / gastrointestinal bleeding ([3]; therapeutic doses used in rheumatoid arthritis): ulceration of the upper gastrointestinal tract leading to gastrointestinal bleeding is common
- ED50 [1]: 3 ± 1 mg/kg

Structure (SMILES): CN(Cc1cnc2nc(N)nc(N)c2n1)c1ccc(C(=O)N[C@@H](CCC(=O)O)C(=O)O)cc1 [methotrexate]
- Progressive dose-related hepatic changes ([3]; extended periods of treatment, correlates with ethanol ingestion): progressive dose-related hepatic changes
- Hepatic effects in patients treated for rheumatoid arthritis ([3]; human, in vivo): Hepatic fibrosis and cirrhosis have been reported

Structure (SMILES): COCCOC(=O)C1=C(C)NC(C)=C(C(=O)OC(C)C)C1c1cccc([N+](=O)[O-])c1 (stereo not shown) [nimodipine]
- Inhibition of arthritis in the passive transfer model ([4]; 10 mg antagonist/kg body weight/day): completely inhibited arthritis
- Increase in paw diameter ([4]; sensitized T cells, 10 mg/kg/day, i.p., 14-18 days after injection of spleen cells): 0.2 ± 0.05 mm
- Gastrointestinal irritation ([5]; acute, sub-acute and chronic exposure, even at supra-therapeutic concentrations, NDA applications): have not revealed any gastrointestinal irritation
- Gastrointestinal toxicity ([5]; expected therapeutic dose in rheumatoid arthritis, prolonged periods of treatment): no gastrointestinal toxicity has been observed
- ED50 [1]: 4 mg/kg
- Potency compared with indomethacin [1]: comparable in potency to indomethacin

From patent publication US5478848A (priority 1994, dated 1995)
